In brackets after ≈: the same amount, converted by molar mass.
Columns and labels:
[1] = tested on: Mammalian orthoreovirus 1; experiment: Antiviral activity against Mammalian orthoreovirus 1 infected Vero cells; assay type: functional
[2] = Cytotoxicity against Chlorocebus aethiops (African green monkey) Vero cells; assay type: cell-based; conditions: chlorocebus sabaeus
[3] = Cytotoxicity against Homo sapiens (human) HeLa cells; assay type: cell-based
Vaccinia virus = experiment: Antiviral activity against Vaccinia virus infected HEL cells; assay type: functional; conditions: Orthopoxvirus vaccinia
Human respirovirus 3 = experiment: Antiviral activity against Human parainfluenza virus 3 infected Vero cells; assay type: functional
[4] = Cytotoxicity against Homo sapiens (human) HEL cells; assay type: cell-based
[5] = tested on: Vesicular stomatitis virus; experiment: Antiviral activity against Vesicular stomatitis virus infected HeLa; assay type: functional
Human alphaherpesvirus 2 = experiment: Antiviral activity against Human herpesvirus 2 strain G infected HEL cells; assay type: functional; conditions: Human alphaherpesvirus 2, strain G
Coxsackievirus B4 [6] = experiment: Antiviral activity against Human coxsackievirus B4 infected Vero cells; assay type: functional; conditions: Enterovirus B
Human alphaherpesvirus 1 [7] = experiment: Antiviral activity against Human herpesvirus 1 strain KOS infected in HEL cells; assay type: functional; conditions: Human alphaherpesvirus 1, KOS
[8] = tested on: Respiratory syncytial virus; experiment: Antiviral activity against Respiratory syncytial virus infected HeLa cells; assay type: functional; conditions: human respiratory syncytial virus
Sindbis virus = experiment: Antiviral activity against Sindbis virus infected Vero cells; assay type: functional
Human alphaherpesvirus 1 [9] = experiment: Antiviral activity against thymidine kinase-deficient, acylcovir-resistant Human herpesvirus 1 strain KOS infected in HEL cells; assay type: functional; conditions: Human alphaherpesvirus 1, KOS
Coxsackievirus B4 [10] = experiment: Antiviral activity against Human coxsackievirus B4 infected HeLa cells; assay type: functional; conditions: Enterovirus B
[11] = tested on: Vesicular stomatitis virus; experiment: Antiviral activity against Vesicular stomatitis virus infected HEL cells; assay type: functional
Punta Toro virus = experiment: Antiviral activity against Punta Toro virus infected Vero cells; assay type: functional
Staphylococcus aureus = experiment: Antibacterial activity against Staphylococcus aureus CIP 4.83; assay type: functional
Saccharomyces cerevisiae = experiment: Antifungal activity against Saccharomyces cerevisiae ATCC 28383; assay type: functional
Escherichia coli = experiment: Antibacterial activity against Escherichia coli CIP 54127; assay type: functional
Candida albicans = experiment: Antifungal activity against Candida albicans CIP 1180-79; assay type: functional

SMILES	MIC [1]	MCC [2]	MCC [3]	MIC (Vaccinia virus)	MIC (Human respirovirus 3)	MCC [4]	MIC [5]	MIC (Human alphaherpesvirus 2)	MIC (Coxsackievirus B4 [6])	MIC (Human alphaherpesvirus 1 [7])	MIC [8]	MIC (Sindbis virus)	MIC (Human alphaherpesvirus 1 [9])	MIC (Coxsackievirus B4 [10])	MIC [11]	MIC (Punta Toro virus)	MIC (Staphylococcus aureus)	MIC (Saccharomyces cerevisiae)	MIC (Escherichia coli)	MIC (Candida albicans)
NC(=O)c1ncn([C@@H]2O[C@H](CO)[C@@H](O)[C@H]2O)n1 [RIBAVIRIN]	300 µg/mL (≈ 1230 µM)	> 500 µg/mL	> 500 µg/mL	300 µg/mL (≈ 1230 µM)	300 µg/mL (≈ 1230 µM)	> 500 µg/mL	60 µg/mL (≈ 246 µM)	> 500 µg/mL	> 500 µg/mL	500 µg/mL (≈ 2050 µM)	60 µg/mL (≈ 246 µM)	300 µg/mL (≈ 1230 µM)	> 500 µg/mL	> 500 µg/mL	> 500 µg/mL	60 µg/mL (≈ 246 µM)				
O=C1/C(=N\c2ccc(Cc3ccc(/N=C4\C(=O)N(Cc5ccccc5)c5ccccc54)cc3)cc2)c2ccccc2N1Cc1ccccc1	> 8 µg/mL	40 µg/mL	200 µg/mL	> 8 µg/mL	> 8 µg/mL	40 µg/mL	> 40 µg/mL	> 8 µg/mL	> 8 µg/mL	> 8 µg/mL	> 40 µg/mL	> 8 µg/mL	> 8 µg/mL	> 40 µg/mL	> 8 µg/mL	> 8 µg/mL	< 50 µg/mL	< 50 µg/mL	< 50 µg/mL	< 50 µg/mL
O=C1/C(=N/c2cccc(Cc3cccc(/N=C4/C(=O)N(Cc5ccccc5)c5ccccc54)c3)c2)c2ccccc2N1Cc1ccccc1	> 40 µg/mL	200 µg/mL	200 µg/mL	> 40 µg/mL	> 40 µg/mL	200 µg/mL	> 40 µg/mL	> 40 µg/mL	> 40 µg/mL	> 40 µg/mL	> 40 µg/mL	> 40 µg/mL	> 40 µg/mL	> 40 µg/mL	> 40 µg/mL	> 40 µg/mL	< 50 µg/mL	< 50 µg/mL	< 50 µg/mL	< 50 µg/mL
Cc1c(/N=C2/C(=O)Nc3ccccc32)cccc1/N=C1/C(=O)Nc2ccccc21	> 80 µg/mL	400 µg/mL	≥ 400 µg/mL	> 80 µg/mL	> 80 µg/mL	400 µg/mL	> 400 µg/mL	> 80 µg/mL	> 80 µg/mL	> 80 µg/mL	> 400 µg/mL	> 80 µg/mL	16 µg/mL (≈ 42.1 µM)	> 400 µg/mL	> 80 µg/mL	> 80 µg/mL	< 100 µg/mL	< 100 µg/mL	< 100 µg/mL	< 100 µg/mL
O=C1Nc2ccccc2/C1=N\c1ccc(Cc2cccc(/N=C3/C(=O)Nc4ccccc43)c2)cc1	> 16 µg/mL	80 µg/mL	≥ 16 µg/mL	> 16 µg/mL	> 16 µg/mL	80 µg/mL	3.2 µg/mL (≈ 7.01 µM)	> 16 µg/mL	> 16 µg/mL	> 16 µg/mL	> 16 µg/mL	> 16 µg/mL	> 16 µg/mL	> 16 µg/mL	> 16 µg/mL	> 16 µg/mL	< 50 µg/mL	< 50 µg/mL	< 50 µg/mL	< 50 µg/mL
O=C1Nc2ccc(F)cc2/C1=N/c1ccc(Cc2ccc(/N=C3\C(=O)Nc4ccc(F)cc43)cc2)cc1	> 16 µg/mL	≥ 16 µg/mL	80 µg/mL	> 3.2 µg/mL	> 16 µg/mL	16 µg/mL	> 16 µg/mL	> 3.2 µg/mL	> 16 µg/mL	> 3.2 µg/mL	> 16 µg/mL	> 16 µg/mL	> 3.2 µg/mL	> 16 µg/mL	> 3.2 µg/mL	> 16 µg/mL	< 50 µg/mL	< 50 µg/mL	< 50 µg/mL	< 50 µg/mL
O=C1Nc2ccccc2/C1=N\c1cccc(Cc2cccc(/N=C3/C(=O)Nc4ccccc43)c2)c1	> 16 µg/mL	80 µg/mL	≥ 16 µg/mL	> 16 µg/mL	> 16 µg/mL	80 µg/mL	9.6 µg/mL (≈ 21 µM)	> 16 µg/mL	> 16 µg/mL	> 16 µg/mL	> 16 µg/mL	> 16 µg/mL	> 16 µg/mL	> 16 µg/mL	> 16 µg/mL	> 16 µg/mL	< 50 µg/mL	< 50 µg/mL	< 50 µg/mL	< 50 µg/mL
O=C1/C(=N\c2ccc(Oc3ccc(/N=C4\C(=O)N(Cc5ccccc5)c5ccccc54)cc3)cc2)c2ccccc2N1Cc1ccccc1	> 80 µg/mL	80 µg/mL	80 µg/mL	> 80 µg/mL	> 80 µg/mL	400 µg/mL	> 16 µg/mL	> 80 µg/mL	> 80 µg/mL	> 80 µg/mL	> 16 µg/mL	> 80 µg/mL	> 80 µg/mL	> 16 µg/mL	> 80 µg/mL	> 80 µg/mL	< 50 µg/mL	< 50 µg/mL	< 50 µg/mL	< 50 µg/mL
Nc1ncnc2c1ncn2C[C@H](O)CO [(S)-DHPA]	300 µg/mL (≈ 1430 µM)	500 µg/mL	> 500 µg/mL		> 100 µg/mL		500 µg/mL (≈ 2390 µM)		> 100 µg/mL		> 500 µg/mL	> 100 µg/mL		> 500 µg/mL						
Nc1nc2c(ncn2COCCO)c(=O)[nH]1 [ACYCLOVIR]				> 500 µg/mL		> 500 µg/mL		20 µg/mL (≈ 88.8 µM)		2.4 µg/mL (≈ 10.7 µM)			300 µg/mL (≈ 1330 µM)		> 500 µg/mL					
Nc1nc2c(ncn2COC(CO)CO)c(=O)[nH]1 [GANCICLOVIR]				> 100 µg/mL		> 100 µg/mL		4 µg/mL (≈ 15.7 µM)		0.48 µg/mL (≈ 1.88 µM)			12 µg/mL (≈ 47 µM)		> 100 µg/mL					
CCc1ccc2c(c1)/C(=N/c1c(CC)cc(Cc3cc(CC)c(/N=C4\C(=O)N(CC)c5ccc(CC)cc54)c(CC)c3Cl)c(Cl)c1CC)C(=O)N2CC	> 3.2 µg/mL	16 µg/mL	16 µg/mL	> 16 µg/mL	> 3.2 µg/mL	80 µg/mL	> 3.2 µg/mL	> 16 µg/mL	> 3.2 µg/mL	> 16 µg/mL	> 3.2 µg/mL	> 3.2 µg/mL	> 16 µg/mL	> 3.2 µg/mL	> 16 µg/mL	> 3.2 µg/mL	< 50 µg/mL	< 50 µg/mL	< 50 µg/mL	< 50 µg/mL
O=c1[nH]c(=O)n([C@H]2C[C@H](O)[C@@H](CO)O2)cc1/C=C/Br [BRIVUDINE]	> 100 µg/mL	500 µg/mL	500 µg/mL	60 µg/mL (≈ 180 µM)	> 100 µg/mL	> 500 µg/mL	> 500 µg/mL	> 500 µg/mL	> 100 µg/mL	0.16 µg/mL (≈ 0.48 µM)	> 500 µg/mL	> 100 µg/mL	500 µg/mL (≈ 1500 µM)	> 500 µg/mL	> 500 µg/mL	> 100 µg/mL				
